Assay: gradient 5% acetonitrile 3 min, to 50% in 2 min, to 85% in 15 min, held 3 min, 100 µL/min
Details: column: Zorbax Extend-C18 2.1 x 50 mm; eluents: water / acetonitrile, 0.1% formic acid
Procedure, shortened: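 Each retention time is based on an adduct peak selected computationally and verified by manual inspection. Measurements used HPLC–quadrupole time-of-flight mass spectrometry in positive and negative ionization mode on mixtures of ~100 pure standards. Chromatography ran on a Zorbax Extend-C18 column (2.1 × 50 mm, 1.8 μm) at 100 μL/min with water and acetonitrile, each containing 0.1% formic acid, and dead and dwell volumes of 40 μL and 900 μL.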

| Structure (SMILES) | RP-LC retention time [s] |
| --- | --- |
| O=S(=O)(c1cccs1)N1CCN(c2ncccn2)CC1 | 754 |
| CCC1CCCCN1CCCNC(=O)c1ccnc(-c2cccs2)c1 (stereo not given) | 627 |
| CN1C(=O)COc2ccc(-c3csc(NC(=O)C4CCCO4)n3)cc21 (stereo not given) | 762 |
| Cn1cc(CCN2CCN(S(=O)(=O)c3ccc(C#N)cc3)CC2)c2cccnc21 | 616 |
| Cn1nnnc1SCC(=O)N1CCC(C(=O)NCC(F)(F)F)CC1 | 600 |
| O=C(NC1CCCCC1)N1CCC(N2C(=O)C3(CCCCC3)C2c2ccncc2)CC1 (stereo not given) | 659 |
| CCOC(=O)c1ccc(Nc2nc(N3CCCC3)nc(N3CCCC3)n2)cc1 | 772 |
| c1csc(-c2csc(CN3CCNCC3)n2)c1 | 548 |
| Cc1noc(-c2nc(-c3cccc(Cl)c3)no2)n1 | 1070 |
| CC(C)CNC(=O)N1C[C@@H]2CCCN3CCC[C@@H]([C@H]23)[C@H]1CCCC(=O)NCC1CC1 | 603 |
| O=C(Cn1c(=O)n(C2CC2)c(=O)c2nscc21)N1CCN(c2ccccc2F)CC1 | 713 |
| CCCCc1ccc(N2CCn3c2nc2c3c(=O)n(CC(=O)O)c(=O)n2C)cc1 | 826 |
| Cc1nc(N2CCN(CCO)CC2)nc2c1C(=O)CC(c1cccc(Cl)c1)C2 (stereo not given) | 693 |
| COCC1CN(C(=O)c2ccc(Cc3c(C)noc3C)o2)CC12CCNCC2 (stereo not given) | 586 |
| Cc1ccc(NS(=O)(=O)c2cc3n(c2)CCCNC3=O)c(C)c1 | 678 |
| COc1ccc(CN(CCC2(C(C)C)CCOC(C)(C)C2)C(C)=O)cc1OC (stereo not given) | 864 |
| COc1ccc(NS(=O)(=O)/C=C/c2ccccc2)cc1N1CCCC1=O | 721 |
| O=C(COc1ccccc1)N1CCC(OCc2nc(C3CC3)no2)CC1 | 817 |
| c1cc(-c2nc(-c3ccc4nncn4c3)no2)co1 | 679 |
| COC(=O)c1c(C)[nH]c(C(=O)N2CCC(CC(=O)N3CCN(C4CCCCC4)CC3)CC2)c1C | 594 |
| Cn1c(N2CCCC(C(=O)N3CCN(c4ccc(Cl)cc4)CC3)C2)cc(=O)n(C)c1=O (stereo not given) | 800 |
| COc1ccccc1N1CCN(CCN2C(=O)CC3(CCCC3)CC2=O)CC1 | 733 |

| Structure (SMILES) | RP-LC retention time [s] |
| --- | --- |
| CCOc1nn(CC)cc1C(=O)NCCc1c[nH]c2ccccc12 | 736 |
| O=C(C1COc2ccccc2O1)N1CCCn2nc(-c3cccs3)cc2C1 (stereo not given) | 934 |
| Cc1ccsc1C(=O)NC1(c2nc(-c3cccnc3)no2)CCCCC1 | 937 |
| c1ccc(CN2CCCC(c3n[nH]c(C4CC4)n3)C2)nc1 (stereo not given) | 465 |
| C=C(C)CN1CC[C@]23c4c5ccc(O)c4O[C@H]2c2[nH]c4ccccc4c2C[C@@]3(O)C1C5 | 703 |
| CCCc1ccc(S(=O)(=O)N2CCC(c3nc4ccncc4n3CCOC)C2)cc1 (stereo not given) | 610 |
| O=C1CO[C@@H](C(=O)O)[C@H](c2ccccc2)N1 | 576 |
| Cc1noc(C2CN(C(=O)Nc3ccc(C)c(F)c3)CC23CCOCC3)n1 (stereo not given) | 776 |
| COC(=O)c1ccc(C(=O)NCc2nc(C)no2)cc1 | 637 |
| C=C1C(=O)OC2C1CCC(C)C1(O)C=CC(=O)C21C (stereo not given) | 722 |
| CCc1nc(-c2csc(S(=O)(=O)N3CCC(C(=O)Nc4cccc(C#N)c4)CC3)c2)no1 | 966 |
| CC1(C(=O)N2CCN(Cc3ccc4c(c3)OCO4)CC2)CCCCC(=O)N1 (stereo not given) | 576 |
| COc1cc2c(cc1C(=O)NCCOc1ccc(Cl)cc1)OCCCO2 | 982 |
| Cc1nc(-c2cn(C(C)C)c3ncccc23)sc1C(=O)N1CCCC(C)C1 (stereo not given) | 1050 |
| O=C(c1cc2cc(Cl)ccc2[nH]1)N1CCOCC1 | 860 |
| CN(C)C[C@@H]1CN(S(C)(=O)=O)C[C@H]1NC(=O)C1(c2ccccc2)CCCC1 | 663 |
| CCCN1C(=O)c2c(C(=O)NCc3ccccc3F)ncn2CC1(C)C(=O)NCCC(C)C (stereo not given) | 836 |
| COc1ccc(OC)c(S(=O)(=O)N2CCCC(C(=O)NC(C)C)C2)c1 (stereo not given) | 714 |
| OCC1CN(c2ncccn2)CC12CCN(Cc1c[nH]c3ccccc13)CC2 (stereo not given) | 579 |
| COc1cc(C=CC(=O)CC(=O)C=Cc2ccc(O)c(OC)c2)ccc1O | 891 |
| Cc1ccc(NC(=O)N(C)CC2CCOC2)c(Cl)c1 (stereo not given) | 766 |

More lines, now with the values ahead:

| RP-LC retention time [s] | Structure (SMILES) |
| --- | --- |
| 1060 | COc1ccc(NC(=O)c2cc(C)n3nc(-c4ccco4)cc3n2)cc1F |
| 964 | COc1cccc(C(=O)Nc2nc(-c3ccc4c(c3)NC(=O)C(C)O4)c(C)s2)c1 (stereo not given) |
| 1020 | O=C(CN1CCCCC1c1nc(-c2ccc(F)cc2)no1)NCc1cccs1 (stereo not given) |
| 1160 | CCOc1ccc(-c2noc(Cn3ccn4nc(-c5ccccc5C)cc4c3=O)n2)cc1 |
| 678 | O=C(NCCn1ncc2c(=O)n(Cc3ccccc3F)cnc21)c1ccc2c(c1)OCO2 |
| 957 | COc1ccc(C2NC(=O)NC(C)=C2C(=O)OCCc2ccccc2)c(OC)c1 (stereo not given) |
| 914 | CC(=O)Nc1cccc(C2OC(c3ccc(Cl)cc3Cl)=NN2C(C)=O)c1 (stereo not given) |
| 1080 | COc1ccc(-c2ncc3c(n2)CCN(S(=O)(=O)c2ccc(OC)c(Cl)c2)C3)cc1 |
| 840 | Cc1ccc(NC(=O)Cn2c(=O)n(-c3ccccc3)c3ncccc32)cc1 |
| 983 | CCOc1ccccc1-c1noc(Cn2c(=O)n(CC)c(=O)c3ccccc32)n1 |
| 608 | CCc1ccccc1NC(=O)Cn1ncc2c(N3CCN(c4ccccn4)CC3)ncnc21 |
| 976 | Cc1cccc(-c2noc(CCn3nc(-c4ccc5c(c4)OCO5)ccc3=O)n2)c1 |
| 648 | O=C(Nc1ccc(OCC(=O)N2CCN(c3ccccc3F)CC2)nc1)C1CC1 |
| 946 | COc1ccc(-c2ncc3c(n2)CCN(C(=O)c2ccc(Br)o2)C3)cc1 |
| 1160 | COc1ccc(OC)c(S(=O)(=O)N2CCc3nc(-c4ccc(Cl)cc4)ncc3C2)c1 |
| 931 | Cc1cc(-c2nnc(-c3ccccc3)o2)c(C)n1CC(=O)Nc1ccccc1 |
| 987 | O=c1n(Cc2cccc(F)c2)nc2ccc(S(=O)(=O)N3CCc4ccccc4C3)cn12 |
| 715 | Cc1oc(-c2ccc(C(=O)NCCCN3CCCC3)cc2)nc1COc1ccccc1 |
| 739 | Cc1ccc(=O)n(-c2ccccc2)c1 |
| 929 | C=CCN1C(=O)C2(c3cc(Br)ccc31)c1[nH]c3ccccc3c1CCN2C(C)=O (stereo not given) |
| 720 | COc1ccc(-c2cc3c(=O)n(CC(=O)NCC4CCCO4)ncn3n2)cc1 (stereo not given) |
| 757 | Cc1cccc(C)c1Nc1c(-c2ccccc2F)nc2cccc(C)n12 |
| 726 | Cn1c(-c2cccc(C(=O)NCc3cc(F)ccc3F)c2)nc2cccnc21 |
| 830 | CCN1C(=O)COc2ccc(-c3csc(NC(=O)C(C)C)n3)cc21 |

| RP-LC retention time [s] | Structure (SMILES) |
| --- | --- |
| 916 | O=C(NCc1nc(-c2ccc(Cl)cc2)no1)NC1CCCCC1 |
| 706 | O=C(Nc1cc(F)ccc1F)Nc1c(-c2ccc(F)cc2)nc2ccccn12 |
| 747 | Cc1ccc(C2=NC3(CCN(C(=O)c4ccc[nH]4)CC3)ON2)cc1 |
| 642 | COc1ccc(Cl)cc1NC(=O)Cn1ncc2c(N3CCN(c4ccccn4)CC3)ncnc21 |
| 863 | Cc1nc(CC(=O)Nc2nc(-c3ccc(F)cc3)cs2)cs1 |
| 560 | CN(C)CCNC(=O)c1ccc(-c2ccc(N3CCCCCC3)nc2)cc1 |
| 990 | COc1cccc(N2C(=O)C3N=NN(Cc4nc(-c5ccc(C)cc5)no4)C3C2=O)c1 (stereo not given) |
| 996 | CCc1cccc(C)c1Nc1c(-c2ccc(C)cc2)nc2cnccn12 |
| 924 | CCCN1C(=O)C2(c3cc(Br)ccc31)c1[nH]c3ccccc3c1CCN2C(C)=O (stereo not given) |
| 671 | O=C(Nc1c(-c2ccc(F)cc2)nc2ccccn12)c1ccc(F)cc1 |
| 1020 | Cc1ccccc1Cn1nc2ccc(S(=O)(=O)N3CCCCCC3)cn2c1=O |
| 882 | O=C(C1=CN(c2ccccc2)c2cc(F)ccc2S1(=O)=O)N1CCCCC1 |
| 762 | Cc1ccc(NC(=O)C2CCCN(C(=O)C3Sc4ccccc4NC3=O)C2)c(C)c1 (stereo not given) |
| 1180 | COc1cccc(S(=O)(=O)N2CCC(c3noc(-c4cccc(C)c4)n3)CC2)c1 |
| 1140 | Cc1cc(NC(=O)c2nc(C(C)C)oc2C)ccc1F |
| 891 | COc1ccc(N2CC(c3nc(-c4ccc5c(c4)OCO5)no3)CC2=O)cc1 (stereo not given) |
| 1370 | Cc1ccc(C(=O)Nc2nc(-c3ccc(C(C)(C)C)cc3)cs2)cc1 |
| 648 | Cc1cccc(C(=O)NC(C)C(=O)Nc2nc3ccccc3[nH]2)c1 (stereo not given) |
| 629 | COc1ccc(NC(=O)c2nnc(CSCC(=O)N3CCN(c4ccccn4)CC3)s2)cc1 |
| 911 | Cc1ccc(N2CC(c3nc(-c4ccc5c(c4)OCO5)no3)CC2=O)cc1C (stereo not given) |
| 684 | COc1ccc(-c2cc(C(=O)NCC(c3ccc(C)o3)N(C)C)no2)cc1 (stereo not given) |
| 1140 | COc1ccc(OC)c(S(=O)(=O)N2CCC(c3noc(-c4ccccc4C)n3)CC2)c1 |
| 908 | COc1ccc(-c2nnc(-c3cccc(S(=O)(=O)N(C)C)c3)o2)cc1 |
